Experimental data published in patent US5763404A, “Methods for using LHRH antagonists with low histamine release” (priority 1995, dated 1998).
Starred links: 1 amine or outer side, 2 acyl side, 3 side chain; linkers in the order of their positions; H or OH if unused. Non-standard residues stand in square brackets, D forms with d. Residues, ends and D or L forms follow the SMILES beside them. *: point of attachment. X2 = O=C(N[C@H]1CC[C@@H](C[C@H](N[*:1])C(=O)[*:2])CC1)c1cnccn1; dPhe(4-Cl) = N[C@H](Cc1ccc(Cl)cc1)C(=O)O; X10 = O=C([C@@H](Cc1cnccn1)N[*:1])[*:2]; d2Nal = N[C@H](Cc1ccc2ccccc2c1)C(=O)O; Lys(iPr) = CC(C)NCCCC[C@H](N)C(=O)O; Lys(Me2) = CN(C)CCCC[C@H](N)C(=O)O; Orn(iPr) = CC(C)NCCC[C@H](N)C(=O)O; d3Pal = N[C@H](Cc1cccnc1)C(=O)O; Nicotinoyl = O=C(c1cccnc1)*; Picolinoyl = O=C(c1ccccn1)*; Me2Gly = CN(C)CC(=O)*; Bz = O=C(c1ccccc1)*

Test system: anaesthesized rats
Assay: wheal test, intradermal injection
Assay type: in vivo, rat
Conditions: 10 ug peptide intradermally; for Wheal: Table I
Method in brief: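 Anaesthetized rats given intradermal injection of 10 ug peptide in 100 ul saline; area of the wheal calculated from its diameter.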

Wheal [mm^2 /10]	Wheal Area [mm^2 /10 μg]	Compound
112		CC(=O)N[C@H](Cc1ccc2ccccc2c1)C(=O)N[C@H](Cc1ccc(Cl)cc1)C(=O)N[C@H](Cc1cccnc1)C(=O)N[C@@H](CO)C(=O)N[C@@H](CCCCNC(=O)c1cccnc1)C(=O)N[C@H](Cc1cccnc1)C(=O)N[C@@H](CC(C)C)C(=O)N[C@@H](CCCNC(=N)N)C(=O)N1CCC[C@H]1C(=O)N[C@H](C)C(N)=O [compound 22495] (Ac-[d2Nal][dPhe(4-Cl)][d3Pal]SK(Nicotinoyl)[d3Pal]LRP[dA]-NH2)
146.7 ± 3.6		CC(=O)N[C@H](Cc1ccc2ccccc2c1)C(=O)N[C@H](Cc1ccc(Cl)cc1)C(=O)N[C@H](Cc1cccnc1)C(=O)N[C@@H](CO)C(=O)N[C@@H](CCCCNC(=O)c1cccnc1)C(=O)N[C@H](Cc1c[nH]cn1)C(=O)N[C@@H](CC(C)C)C(=O)N[C@@H](CCCNC(=N)N)C(=O)N1CCC[C@H]1C(=O)N[C@H](C)C(N)=O [compound 24544] (Ac-[d2Nal][dPhe(4-Cl)][d3Pal]SK(Nicotinoyl)[dH]LRP[dA]-NH2)
139.9		CC(=O)N[C@H](Cc1ccc(Cl)cc1)C(=O)N[C@H](Cc1ccc(Cl)cc1)C(=O)N[C@H](Cc1cccnc1)C(=O)N[C@@H](CO)C(=O)N[C@@H](Cc1ccc(O)cc1)C(=O)N[C@H](CCCCNC(=O)c1cccnc1)C(=O)N[C@@H](CC(C)C)C(=O)N[C@@H](CCCCNC(C)C)C(=O)N1CCC[C@H]1C(=O)N[C@H](C)C(N)=O [compound 25337] (Ac-[dPhe(4-Cl)][dPhe(4-Cl)][d3Pal]SY[dK](Nicotinoyl)L[Lys(iPr)]P[dA]-NH2)
122.7		CC(=O)N[C@H](Cc1ccc2ccccc2c1)C(=O)N[C@H](Cc1ccc(Cl)cc1)C(=O)N[C@H](Cc1cccnc1)C(=O)N[C@@H](CO)C(=O)N[C@@H](Cc1ccc(O)cc1)C(=O)N[C@H](CCCCNC(=O)c1cccnc1)C(=O)N[C@@H](CC(C)C)C(=O)N[C@@H](CCCCN(C)C)C(=O)N1CCC[C@H]1C(=O)N[C@H](C)C(N)=O [compound 24443] (Ac-[d2Nal][dPhe(4-Cl)][d3Pal]SY[dK](Nicotinoyl)L[Lys(Me2)]P[dA]-NH2)

Second part, the compound before the results:

Compound	Wheal [mm^2 /10]	Wheal Area [mm^2 /10 μg]
CC(=O)N[C@H](Cc1ccc2ccccc2c1)C(=O)N[C@H](Cc1ccc(Cl)cc1)C(=O)N[C@H](Cc1cccnc1)C(=O)N[C@@H](CO)C(=O)N[C@@H](CCCCNC(=O)CN(C)C)C(=O)N[C@H](CCCCNC(=O)c1cccnc1)C(=O)N[C@@H](CC(C)C)C(=O)N[C@@H](CCCCNC(C)C)C(=O)N1CCC[C@H]1C(=O)N[C@H](C)C(N)=O [compound 25509] (Ac-[d2Nal][dPhe(4-Cl)][d3Pal]SK(Me2Gly)[dK](Nicotinoyl)L[Lys(iPr)]P[dA]-NH2)	110 ± 3	
CC(=O)N[C@H](Cc1ccc2ccccc2c1)C(=O)N[C@H](Cc1ccc(Cl)cc1)C(=O)N[C@H](Cc1cccnc1)C(=O)N[C@@H](CO)C(=O)N[C@@H](C[C@H]1CC[C@@H](NC(=O)c2cnccn2)CC1)C(=O)N[C@H](Cc1cnccn1)C(=O)N[C@@H](CC(C)C)C(=O)N[C@@H](CCCNC(=N)N)C(=O)N1CCC[C@H]1C(=O)N[C@H](C)C(N)=O [compound 26417] (Ac-[d2Nal][dPhe(4-Cl)][d3Pal]S[X2][X10]LRP[dA]-NH2)		133.2 ± 11.8
CC(=O)N[C@H](Cc1ccc2ccccc2c1)C(=O)N[C@H](Cc1ccc(Cl)cc1)C(=O)N[C@H](Cc1cccnc1)C(=O)N[C@@H](CO)C(=O)N[C@@H](CCCCNC(=O)c1ccccn1)C(=O)N[C@H](CCCCNC(=O)c1ccccn1)C(=O)N[C@H](C(=O)N[C@@H](CCCNC(C)C)C(=O)N1CCC[C@H]1C(=O)N[C@H](C)C(N)=O)C(C)C [compound 26118] (Ac-[d2Nal][dPhe(4-Cl)][d3Pal]SK(Picolinoyl)[dK](Picolinoyl)V[Orn(iPr)]P[dA]-NH2)		119.6 ± 6.6
CC(=O)N[C@H](Cc1ccc2ccccc2c1)C(=O)N[C@H](Cc1ccc(Cl)cc1)C(=O)N[C@H](Cc1cccnc1)C(=O)N[C@@H](CO)C(=O)N[C@@H](CCCNC(=N)N)C(=O)N[C@H](CCCCNC(=O)c1ccccc1)C(=O)N[C@@H](CC(C)C)C(=O)N[C@@H](CCCCNC(C)C)C(=O)N1CCC[C@H]1C(=O)N[C@H](C)C(N)=O [compound 25385] (Ac-[d2Nal][dPhe(4-Cl)][d3Pal]SR[dK](Bz)L[Lys(iPr)]P[dA]-NH2)	169.0	
